The values below are quoted from earlier work in patent US20140199433A1, “POLYDIORGANOSILOXANE-ENCAPSULATED ACTIVE INGREDIENT, METHOD FOR THE PREPARATION THEREOF, AND CHEWING GUM COMPRISING SAME” (Intercontinental Great Brands LLC, priority 2011, published 2014).

For the data set the following is noted: 20° C. and one atmosphere.

With `O=C(O)CC(O)C(=O)O` (stereo not shown) [malic acid], the water solubility entry is “about 588 grams per liter”.
